# Test results from publication PMC8222394 (Nature Communications, 2021).
# “And” between values parts separate entries of the source, which are not always exact repeats. Equal entries are not always repeated. Where two headings read alike, the source gives them in different places.
# What was measured:
# SARS-CoV-2 pseudovirus [1] = experiment: microbe, parasite or virus in culture; assay type: cell-based; conditions: Severe acute respiratory syndrome-related coronavirus
# SARS-CoV-2 pseudovirus [2] = assay type: cell-based
# SARS-CoV-2 pseudovirus [3] = assay type: cell-based; remark: listed apart in the source
# [4] = tested on: SARS-CoV-2 (wildtype-USA-WA1/2020); assay type: cell-based
# TMPRSS2-V5 = assay type: cell-based, human
# corin = experiment: RT-qPCR of CORIN mRNA in Caco-2 cells; assay type: cell-based, human; conditions: Fig. S3B, Caco-2, 6 hr, relative to Veh
# DCAF1 = experiment: qPCR of DCAF1 gene expression in Caco-2 cells; assay type: cell-based, human
# E-cadherin = experiment: Immunoblot of E-cadherin in Caco-2 cells; assay type: cell-based, human
# Ace2-GFP = experiment: Immunoblot of Ace2-GFP in Beas-2B cells; assay type: cell-based
# TMPRSS2 [5] = conditions: for TMPRSS2 densitometry (relative to 0): Fig. 4B, Caco-2, 18 h, listed as HHT
# TMPRSS2 [6] = conditions: Calu-3 cells
# TMPRSS2 [7] = tested on: TMPRSS2
# TMPRSS2 [8] = conditions: Caco-2 cells, 18 h treatment then washout
# SARS-CoV-2 = conditions: cited from earlier work
# [9] = cited from earlier work
# in vitro = conditions: human
# TMPRSS2 [10] = target: TMPRSS2 (Homo sapiens, UniProt O15393); experiment: TMPRSS2 activity assay (Boc-Gln-Ala-Arg-MCA fluorescence); assay type: biochemical; set-up: purchased LSBio; conditions: for TMPRSS2 activity (FigS9 source data): replicates
# Protocol: Fluorescence (380-15 nm excitation/470-20 nm emission) of the samples was monitored over 4:45 h and the slope of the curves was calculated by linear regression analysis and used as output for TMPRSS2 activity.
# [11] = Fig. S3B, Caco-2, 6 hr, relative to Veh
# TMPRSS2 (Homo sapiens, UniProt O15393), sequence (O15393 106-492): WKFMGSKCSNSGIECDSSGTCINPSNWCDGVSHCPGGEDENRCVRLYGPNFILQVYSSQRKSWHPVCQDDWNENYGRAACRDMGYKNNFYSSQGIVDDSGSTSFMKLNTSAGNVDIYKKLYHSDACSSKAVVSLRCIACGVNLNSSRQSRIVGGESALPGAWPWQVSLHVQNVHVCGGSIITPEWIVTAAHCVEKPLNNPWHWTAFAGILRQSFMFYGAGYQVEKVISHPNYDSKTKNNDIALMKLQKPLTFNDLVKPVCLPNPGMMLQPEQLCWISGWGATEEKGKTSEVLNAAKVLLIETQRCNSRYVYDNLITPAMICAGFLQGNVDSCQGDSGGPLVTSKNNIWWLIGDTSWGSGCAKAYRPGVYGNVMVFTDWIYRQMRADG
compound,measurement,setting,value
COC(=O)C[C@](O)(CCCC(C)(C)O)C(=O)O[C@@H]1C(OC)=C[C@]23CCCN2CCc2cc4c(cc2[C@H]13)OCO4 [Homoharringtonine],IC50,"SARS-CoV-2 pseudovirus [1]; Caco-2, read-out: In vitro IC50 (viral entry)",~30 nM
same,IC50,"SARS-CoV-2 pseudovirus [1]; Caco-2, read-out: concentration for 50% reduction in the level of pseudoviral entry",~300 nM
same,pseudoviral GFP expression,SARS-CoV-2 pseudovirus [2],markedly reduced levels of GFP expression
same,pseudoviral luciferase reporter signal,SARS-CoV-2 pseudovirus [3],dose-dependent reduction of the luciferase signal
same,signal relative to Control (FigS7 source data),SARS-CoV-2 pseudovirus [3],0.9261 and 0.5325 and 0.6307
same,EC50 observed in TMPRSS2-expressing Calu-3 cells,[4],in the sub-micromolar range
same,reduction of SARS-CoV-2 viral infection,[4],highly effective in reducing SARS-CoV-2 viral infection
same,TMPRSS2-V5 versus LacZ-V5 expression,TMPRSS2-V5,selectively reduced TMPRSS2 expression
same,CORIN mRNA expression,corin,1.163 and 0.982 and 0.932 and 0.999
same,DCAF1 gene expression,"DCAF1; Caco-2, 3µM",do not affect DCAF1 gene expression
same,relative DCAF1 gene expression,"DCAF1; block Vehicle/HFG/HHT, replicates, listed as HHT",1.551 and 2.869 and 1.311
same,E-cadherin protein,E-cadherin,unaffected
same,Ace2 protein,Ace2-GFP,unaffected
same,time to substantial reduction in TMPRSS2 expression,"TMPRSS2 [5]; Caco-2 cells, 3 µM",within three hours
same,endogenous TMPRSS2 protein expression,"TMPRSS2 [5]; Caco-2 cells, 18 h",marked reduction
same,TMPRSS2 densitometry (relative to 0),TMPRSS2 [5]; head 0.3 (unit not given),0.2253 and 0.285
same,TMPRSS2 densitometry (relative to 0),TMPRSS2 [5]; head 1,0.1372 and 0.2276
same,TMPRSS2 densitometry (relative to 0),TMPRSS2 [5]; head 3,0.1102 and 0.1378
same,TMPRSS2 protein levels,TMPRSS2 [6],qualitatively similar decreases
same,TMPRSS2 transcription,TMPRSS2 [7]; Caco-2 cells,modestly increased
same,"TMPRSS2 mRNA expression, Set1",TMPRSS2 [7]; [11],2.5 and 2.009 and 1.288 and 1.873
same,"TMPRSS2 mRNA expression, set2",TMPRSS2 [7]; [11],2.103 and 1.771 and 1.821 and 2.33
same,"TMPRSS2 mRNA expression, set3",TMPRSS2 [7]; [11],2.872 and 1.654 and 1.63 and 2.705
same,recovery of TMPRSS2 levels after drug removal,TMPRSS2 [8],returned close to baseline roughly six hours after drug removal
same,EC50,SARS-CoV-2,2100 nM
same,clinical adverse events,[9],"grade III or IV adverse events, including severe myelosuppression"
same,toxicity profile,[9],relatively toxic agent with an adverse side effect profile
same,CC50,in vitro,> 10000 nM
same,TMPRSS2 activity (FigS9 source data),TMPRSS2 [10]; 0.08 µM,0.4186 and 0.4254 and 0.3869 and 0.4813
same,TMPRSS2 activity (FigS9 source data),TMPRSS2 [10]; 0.4 µM,0.428 and 0.3513 and 0.3883 and 0.3736
same,TMPRSS2 activity (FigS9 source data),TMPRSS2 [10]; 2 µM,0.3803 and 0.3278 and 0.3209 and 0.2843
same,TMPRSS2 catalytic activity,"TMPRSS2 [10]; recombinant TMPRSS2, preliminary",do not inhibit TMPRSS2 activity
